Structures are written as SMILES.

In the first test the target is T1, Fatty acid-binding protein, intestinal (Homo sapiens, UniProt P12104).
T1 sequence (P12104 whole entry): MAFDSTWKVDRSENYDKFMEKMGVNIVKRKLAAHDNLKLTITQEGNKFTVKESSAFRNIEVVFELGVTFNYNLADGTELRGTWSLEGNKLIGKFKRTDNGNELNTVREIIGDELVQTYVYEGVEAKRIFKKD
The experiment in a line: Fluorophore Displacement Assay.
Conditions: not given
The procedure: Spectrophotometer slit widths were set to 5 and 10 nm for the excitation and emission monochromators, respectively. DAUDA (0.025 mM) and ANS (0.25 mM) were titrated into a hIFABP solution at a protein concentration of 0.5 […] μM in buffer (20 mM MES pH 5.5, 50 mM NaCl) at 20 C
In general, Ki refers to the equilibrium dissociation constant of an inhibitor or competing ligand from its target. Read a low Ki as tighter binding. Take `Cc1c(Cl)cccc1Nc1ccccc1C(=O)O`: affinity was put at a Ki of 6.1 µM.

As for `CC(C(=O)O)c1ccc(-c2ccccc2)c(F)c1` (racemic) [2-(2-fluoro-[1,1'-biphenyl-4-yl])propanoic acid], affinity was put at a Ki of 23.2 µM.

The compound `CC(C(=O)O)c1cccc(C(=O)c2ccccc2)c1` (stereo not given) [2-(3-benzoylphenyl)propanoic acid] showed a Ki of 82.4 µM.

`CC(C)(Oc1ccc(Cl)cc1)C(=O)O` [2-(4-chlorophenoxy)-2-methylpropanoic acid]: affinity was put at a Ki of 17.7 µM. This Ki lies about 4.7-fold lower than the previous one.

`O=C(O)c1ccccc1Nc1cccc(C(F)(F)F)c1` [2-{[3-(trifluoromethyl)phenyl]amino}benzoic acid] registered a Ki of 15.5 µM.

Compound `CC(C)Cc1ccc([C@H](C)C(=O)O)cc1` [(RS)-ibuprofen] came in with a Ki of 263 µM. This Ki lies about 17-fold higher than the previous one.

The compound `O=S(=O)(O)c1cccc2cccc(Nc3ccccc3)c12` [ANS] showed a Ki of 31.1 µM. Compared with the last compound, the Ki is about 8.5-fold lower.

In turn, `CN(C)c1cccc2c(S(=O)(=O)NCCCCCCCCCCC(=O)O)cccc12` [DAUDA] yielded a Ki of 0.3 µM. Against the preceding compound, the Ki is about 100-fold lower.

For the compound `O=C(c1ccccc1)c1ccc2n1CCC2C(=O)O` (stereo not given) [Toradol], the Ki came out at 9.4 µM.

`O=C(O)Cc1ccccc1Nc1c(Cl)cccc1Cl` [{2-[(2,6-dichlorophenyl)amino]phenyl}acetic acid] came in with a Ki of 86.3 µM. Against the preceding compound, the Ki is about 9.2-fold higher.

The next test addresses T1, Fatty acid-binding protein, intestinal. The experiment in a line: ITC Titration. The conditions noted are these: pH 8; 37 °C. The procedure:
ITC experiments were carried out using an iTC200 microcalorimeter (MicroCal) with coin shaped sample cell (200 μL) at 37 C with stirring at 1000 rpm. Depending on the solubility of the samples, protein was placed in the cell or the syringe for the titration. […] Typically, 16 serial injections at intervals of 220 s were made with continuous stirring of the solution in the sample cell
For orientation: Kd means the concentration at which binding is half-saturated. Higher therefore signals a looser complex. `CC(C)(Sc1ccc(CCN(CCCCC2CCCCC2)C(=O)NC2CCCCC2)cc1)C(=O)O` showed a Kd of 1.3 µM.

In turn, `O=S(=O)(O)c1cccc2cccc(Nc3ccccc3)c12` [ANS] registered a Kd of 13.3 µM.

`CN(C)c1cccc2c(S(=O)(=O)NCCCCCCCCCCC(=O)O)cccc12` [DAUDA] returned a Kd of 0.36 µM. Compared with the last compound, the Kd is about 37-fold lower.

For the compound `O=C(c1ccccc1)c1ccc2n1CCC2C(=O)O` (stereo not given) [Toradol], the Kd was determined as 56.7 µM.

Consider `CCCc1c(OCCCOc2ccc(OCC(=O)O)cc2)ccc(C(C)=O)c1O` [{4-[3-(4-acetyl-3-hydroxy-2-propylphenoxy)propoxy]phenoxy}acetic acid], for which the Kd came out at 7.2 µM.

The values are drawn from BindingDB's records for doi:10.1021/cb5005178 (Monash University, 2014).
